Assay results taken from US10973823B2, “Anti-cancer composition consisting of halofuginone and sesquiterpene lactone compounds of artemisia apiacea and use thereof” (Hong Kong Baptist University, priority 2016, dated 2021).

Legend:
Details in all cases: alone or combined, 24 hours
[1] = test system: colon cancer cell HCT-116; assay: MTT assay, colon cancer cell HCT-116; type: cell-based, Human
Protocol: (§1) Human colon cancer cell line HCT-116 was seeded on a 96-well plate, with 100 μl of cell suspension in each well. The culture medium was DMEM supplemented with 10% FBS and 2 mM glutamate. […] 24 hours after adding the compound, the cell survival rate was assessed using the MTT assay, and the combination index (CI) of the combined pharmaceutical of HF and ATS was calculated using the Calcusyn software. Tumor cell survival rate=the OD value of the experimental group/the OD value of the control group×100%

[2] = test system: gastric cancer cell MGC803; assay: MTT assay, gastric cancer cell MGC803; type: cell-based
Protocol: as §1, with “Gastric” for “Human colon”, “MGC803” for “HCT-116”, “software.” for “software. Tumor cell survival rate=the OD value of the experimental group/the OD value of the control group×100%”

[3] = test system: liver cancer cell HepG2; assay: MTT assay, liver cancer cell HepG2; type: cell-based
Protocol: as §1, with “Liver” for “Human colon”, “HepG2” for “HCT-116”, “software.” for “software. Tumor cell survival rate=the OD value of the experimental group/the OD value of the control group×100%”

[4] = test system: melanoma cell A375; assay: MTT assay, melanoma cell A375; type: cell-based
Protocol: as §1, with “Melanoma” for “Human colon cancer”, “A375” for “HCT-116”, “software.” for “software. Tumor cell survival rate=the OD value of the experimental group/the OD value of the control group×100%”

[5] = test system: breast cancer cell MCF-7; assay: MTT assay, breast cancer cell MCF-7; type: cell-based
Protocol: as §1, with “Breast” for “Human colon”, “MCF-7” for “HCT-116”, “software.” for “software. Tumor cell survival rate=the OD value of the experimental group/the OD value of the control group×100%”

[6] = HF 10 nM, ATS/DAT/ASU/ATM 160 μM
[7] = HF 20 nM, ATS/DAT/ASU/ATM 320 μM
[8] = HF 40 nM, ATS/DAT/ASU/ATM 640 μM

SMILES | Cell death rate (%) [1, 6] [%] | Cell death rate (%) [1, 7] [%] | Cell death rate (%) [1, 8] [%] | Cell death rate (%) ([2]; HF 10 nM, lactone 160 μM) | Cell death rate (%) ([2]; HF 20 nM, lactone 320 μM) | Cell death rate (%) ([2]; HF 40 nM, lactone 640 μM) | Cell death rate (%) ([3]; HF 10 nM, lactone 160 μM) | Cell death rate (%) ([3]; HF 20 nM, lactone 320 μM) | Cell death rate (%) ([3]; HF 40 nM, lactone 640 μM) | Cell death rate (%) ([4]; HF 10 nM, lactone 160 μM) | Cell death rate (%) ([4]; HF 40 nM, lactone 640 μM) | Cell death rate (%) ([5]; HF 10 nM, lactone 160 μM) | Cell death rate (%) ([5]; HF 20 nM, lactone 320 μM) | Cell death rate (%) ([5]; HF 40 nM, lactone 640 μM) | Cell death rate (%) ([4]; HF 20 nM, lactone 320 μM)
C[C@H]1[C@H](OC(=O)CCC(=O)O)O[C@@H]2O[C@@]3(C)CC[C@H]4[C@H](C)CC[C@@H]1[C@@]24OO3 [ASU, artesunate] | 35.15 ± 3.45 | 48.31 ± 3.69 | 53.52 ± 2.46 | 1.15 ± 0.92 | 5.31 ± 1.69 | 43.57 ± 2.56 | 0.95 ± 0.72 | 1.86 ± 0.09 | 6.57 ± 2.06 | 16.15 ± 4.90 | 47.59 ± 3.93 | 9.15 ± 0.92 | 16.31 ± 1.69 | 33.57 ± 2.56 | 
CO[C@H]1O[C@@H]2O[C@@]3(C)CC[C@H]4[C@H](C)CC[C@@H]([C@H]1C)[C@@]24OO3 [ATM, artemether] | 33.17 ± 4.46 | 46.32 ± 3.45 | 54.50 ± 2.50 |  |  |  |  |  |  |  |  |  |  |  | 
C[C@@H]1CC[C@H]2[C@@H](C)C(=O)O[C@@H]3O[C@@]4(C)CC[C@@H]1[C@]32OO4 [ATS, Artemisinin] | 35.89 ± 3.91 | 48.31 ± 3.61 | 54.42 ± 2.44 | 1.00 ± 3.31 | 4.60 ± 5.51 | 40.00 ± 3.18 | 0.90 ± 0.95 | 1.60 ± 0.08 | 6.40 ± 2.71 | 16.50 ± 4.30 | 46.50 ± 3.57 | 9.50 ± 0.77 | 16.50 ± 1.47 | 33.90 ± 2.00 | 26.30 ± 1.33
C[C@H]1[C@@H](O)O[C@@H]2O[C@@]3(C)CC[C@H]4[C@H](C)CC[C@@H]1[C@@]24OO3 [DAT, dihydroartemisinin] | 36.80 ± 3.33 | 47.32 ± 3.65 | 55.57 ± 2.43 | 1.81 ± 0.83 | 5.32 ± 1.65 | 42.59 ± 2.43 | 0.81 ± 0.83 | 1.72 ± 0.15 | 6.59 ± 2.58 | 16.81 ± 5.83 | 42.55 ± 4.42 | 8.81 ± 0.83 | 16.32 ± 1.65 | 32.59 ± 2.43 | 26.35 ± 1.64
O=C(CC1NCCCC1O)Cn1cnc2cc(Br)c(Cl)cc2c1=O (centres unmarked) [HF, Halofuginone] | 19.41 ± 4.03 | 33.06 ± 3.32 | 59.27 ± 0.41 | 8.10 ± 2.77 | 20.00 ± 4.18 | 29.00 ± 3.31 | 0.70 ± 3.11 | 1.00 ± 2.06 | 4.00 ± 2.21 | 5.70 ± 5.44 | 35.70 ± 4.76 | 2.00 ± 1.28 | 3.00 ± 0.55 | 9.10 ± 1.79 | 17.70 ± 2.82
